Data from patent US20240336938A1, “COMPOSITIONS AND METHODS FOR EFFECTIVE DELIVERY OF POLYNUCLEOTIDES TO CELLS” (WUHAN UNIVERSITY, priority 2021, published 2024).

How the values were obtained:
[1] = system: STING; assay: STING inhibitor pretreatment of T cells before DNA electroporation; assay type: cell-based, human
[2] = system: STING; assay: STING inhibitor pretreatment of THP-1 cells before HSV-1 stimulation, qPCR; assay type: cell-based, human; conditions: THP1 cells, indicated doses

Structure (SMILES): CCc1ccc(NC(=O)Nc2c[nH]c3ccccc23)cc1 [H151]
- IFNβ and ISG56 expression in DNA transfected T cells under inhibitor ([1]; 1 μM pretreatment, qPCR): upregulated
- rescue of DNA-induced cell death ([1]; 1 μM, 16 h pretreatment, cell number 72 h post-EP): failed to rescue DNA-induced cell death
- ISG56 and IFN-β response to HSV-1 [2]: positive dose-response
